Experimental data taken from patent US8778966B2, “Quinolinone derivatives as PARP and tank inhibitors” (Janssen Pharmaceutica, NV, priority 2007, dated 2014).

Target: T1, TANK-2 enzyme (Homo sapiens, UniProt Q9H2K2)
T1 construct: made in house
T1 sequence (Q9H2K2 1-1166): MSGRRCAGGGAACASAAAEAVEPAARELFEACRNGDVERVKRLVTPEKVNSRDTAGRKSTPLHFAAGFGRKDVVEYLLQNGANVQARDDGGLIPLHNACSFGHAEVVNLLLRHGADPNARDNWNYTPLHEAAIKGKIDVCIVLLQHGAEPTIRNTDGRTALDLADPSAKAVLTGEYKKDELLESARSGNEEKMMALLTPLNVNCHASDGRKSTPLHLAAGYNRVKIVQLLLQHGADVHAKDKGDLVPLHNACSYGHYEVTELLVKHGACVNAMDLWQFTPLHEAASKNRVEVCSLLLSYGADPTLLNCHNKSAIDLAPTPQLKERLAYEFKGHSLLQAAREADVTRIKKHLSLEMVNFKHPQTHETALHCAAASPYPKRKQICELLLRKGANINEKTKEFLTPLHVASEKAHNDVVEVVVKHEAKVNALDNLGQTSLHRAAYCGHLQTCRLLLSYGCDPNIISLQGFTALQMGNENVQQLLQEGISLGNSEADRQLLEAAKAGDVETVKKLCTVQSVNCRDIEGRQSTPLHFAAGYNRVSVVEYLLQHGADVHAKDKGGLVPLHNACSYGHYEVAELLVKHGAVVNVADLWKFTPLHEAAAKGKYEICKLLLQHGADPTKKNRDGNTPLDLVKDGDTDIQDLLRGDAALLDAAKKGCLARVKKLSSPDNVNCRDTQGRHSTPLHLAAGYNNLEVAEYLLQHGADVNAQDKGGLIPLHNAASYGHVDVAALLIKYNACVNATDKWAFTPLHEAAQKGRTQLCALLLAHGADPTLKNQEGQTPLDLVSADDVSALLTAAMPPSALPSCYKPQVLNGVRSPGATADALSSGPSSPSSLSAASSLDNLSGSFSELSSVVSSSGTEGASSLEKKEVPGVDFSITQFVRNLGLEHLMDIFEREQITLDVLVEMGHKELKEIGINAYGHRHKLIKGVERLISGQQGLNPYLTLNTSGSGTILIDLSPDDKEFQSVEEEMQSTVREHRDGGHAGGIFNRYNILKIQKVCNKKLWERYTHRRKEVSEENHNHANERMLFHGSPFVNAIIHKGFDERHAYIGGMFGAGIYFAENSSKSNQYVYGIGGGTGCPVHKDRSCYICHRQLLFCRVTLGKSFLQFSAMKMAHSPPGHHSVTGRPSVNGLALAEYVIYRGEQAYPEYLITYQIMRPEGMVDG
Assay: In vitro Scintillation Proximity Assay (SPA) for TANK-2 inhibitory activity
Assay type: biochemical
Settings: read-out: in vitro SPA assay TANK-2 pIC50 (converted)
Description: Compounds of the present invention were tested in an in vitro assay based on SPA technology with Ni Flash plates (96 or 384 well). In principle, the assay relies upon SPA technology for the detection of auto-poly(ADP-ribosyl)ation of TANK-2 protein using [^3H]-nicotinamide adenine dinucleotide ([^3H]-NAD^+) as ADP-ribosyl donor.
A stock solution of 100 nM [3H]-NAD^+/NAD (0.1 mCi/ml, supplier: Perkin Elmer) and 0.25 μM NAD (Sigma) was made in assay buffer (60 mM Tris/HCl, pH 7.4; 0.9 mM DTT; 6 mM MgCl2). The TANK-2 enzyme was produced as described in EP1238063. 60 μl of assay buffer, together with 1 μl of compound in DMSO, 20 μl of [^3H]-NAD^+/NAD and 20 μl of TANK-2 enzyme (final concentration 8 μg/ml) was added per well into a 96-well Ni-coated flash plate (Perkin Elmer). After incubation of the mixture for 120 min. at room temperature, the reaction was terminated by adding 60 μl of stopsolution (42.6 mg NAD in 6 ml H2O). The plates were covered with a plate sealer and placed in a TopCountNXT™ (Packard) for scintillation counting. Values were expressed as counts per minute (cpm). For each experiment, controls (containing TANK-2 enzyme and DMSO without compound), a blank incubation (containing DMSO but no TANK-2 enzyme or compound) and samples (containing TANK-2 enzyme and compound dissolved in DMSO) were run in parallel. All compounds tested were dissolved and eventually further diluted in DMSO. In first instance, compounds were tested at a concentration of 10^−5M. […] In each test, the blank value was subtracted from both the control and the sample values. The control sample represented maximal TANK-2 enzyme activity. For each sample, the amount of cpm was expressed as a percentage of the mean cpm value of the controls. When appropriate, IC50-values (concentration of the drug, needed to reduce the TANK-2 enzyme activity to 50% of the control) were computed using linear interpolation between the experimental points just above and below the 50% level. Herein the effects of test compounds are expressed as pIC50 (the negative log value of the IC50-value). As reference compounds, 3-aminobenzamide and 4-amino-1,8-naphtalimide were included to validate the SPA assay. Herein the assay was described using 96-well plates. In the assay using 384-well plates the same final concentrations were used and volumes were adapted.

SMILES	IC50 [nM]
CCc1cc2ccc(C(C)(C#N)Cc3cccc(C(=O)O)c3)cc2[nH]c1=O (stereo not shown) [Compound 10]	50.1
CCc1cc2ccc(C(C)(C#N)Cc3cccc(C(=O)NC)c3)cc2[nH]c1=O (stereo not shown) [Compound 13]	63.1
CCc1cc2ccc(C(C)(C#N)Cc3cccc(NS(C)(=O)=O)c3)cc2[nH]c1=O (stereo not shown) [Compound 14]	79.4
CCc1cc2ccc(C(C)(C#N)Cc3cccc(NC(=O)N4CCOCC4)c3)cc2[nH]c1=O (stereo not shown) [Compound 16]	79.4
CCc1cc2ccc(C(C)(C#N)Cc3ccc(C(F)(F)F)cc3)cc2[nH]c1=O (stereo not shown) [Compound 108]	126
CCc1cc2ccc(C(C)(C#N)Cc3ccc(C#N)cc3)cc2[nH]c1=O (stereo not shown) [Compound 111]	31.6
CCc1cc2ccc(C(C)(C#N)Cc3ccc(F)cc3)cc2[nH]c1=O (stereo not shown) [Compound 115]	31.6
CCc1cc2ccc(C(C)(C#N)Cc3ccc(C)cc3)cc2[nH]c1=O (stereo not shown) [Compound 117]	25.1
CCc1cc2ccc(C(C)(C#N)Cc3cc(C(F)(F)F)cc(C(F)(F)F)c3)cc2[nH]c1=O (stereo not shown) [Compound 131]	1000
CCc1cc2ccc(C(C)(C#N)Cc3cc(Br)cc(Br)c3)cc2[nH]c1=O (stereo not shown) [Compound 133]	200
CCc1cc2ccc(C(C)(C#N)CCOc3ccc4oc(C)c(C)c4c3)cc2[nH]c1=O (stereo not shown) [Compound 162]	158
CCc1cc2ccc(C(C)(C#N)CCOc3cccc4c3OCCO4)cc2[nH]c1=O (stereo not shown) [Compound 163]	200
CCc1cc2ccc(C(C)(C#N)CCOc3ccc(C(C)(C)C)cc3)cc2[nH]c1=O (stereo not shown) [Compound 167]	794
CCc1cc2ccc(C(C)(C#N)CC#Cc3cccc(F)c3)cc2[nH]c1=O (stereo not shown) [Compound 184]	2510
Cc1cc2ccc([C@@](C)(C#N)[C@@H]3CCc4cc(C#N)ccc43)cc2[nH]c1=O [Compound 245]	1000
CCc1cc2ccc([C@](C)(C#N)C[C@@H]3CCc4cc(C)ccc4O3)cc2[nH]c1=O [Compound 251]	316
CCc1cc2ccc([C@@](C)(C#N)C[C@@H]3CCc4cc(C)ccc4O3)cc2[nH]c1=O [Compound 252]	794
Cc1cc2ccc([C@@](C)(C#N)[C@H]3CCc4cc(C#N)ccc43)cc2[nH]c1=O [Compound 389]	3160
CCc1cc2ccc(C(C#N)(CC)C3CCc4ccc(F)cc43)cc2[nH]c1=O (stereo not shown) [Compound 391]	631

Results, then the compound that gave them:

IC50 [nM]	SMILES
200	CCc1cc2ccc([C@@](C)(C#N)CCOc3ccccc3)cc2[nH]c1=O (single isomer, unassigned) [Compound 150]
158	CCc1cc2ccc(C(C)(C#N)CCOc3ccc(Cl)cc3)cc2[nH]c1=O (stereo not shown) [Compound 146]
200	CCc1cc2ccc(C(C)(C#N)CCOc3ccc(C)cc3)cc2[nH]c1=O (stereo not shown) [Compound 149]
126	CCc1cc2ccc(C(C)(C#N)CCOc3ccccc3Cl)cc2[nH]c1=O (stereo not shown) [Compound 152]
79.4	CCc1cc2ccc(C(C)(C#N)CCOc3ccccc3Br)cc2[nH]c1=O (stereo not shown) [Compound 153]
126	CCc1cc2ccc(C(C)(C#N)CCOc3ccc(SC)cc3)cc2[nH]c1=O (stereo not shown) [Compound 155]
251	CCc1cc2ccc(C(C)(C#N)CCOc3ccccc3C(C)=O)cc2[nH]c1=O (stereo not shown) [Compound 159]
126	CCc1cc2ccc(C(C#N)(CCOc3ccccc3)C3CC3)cc2[nH]c1=O (stereo not shown) [Compound 166]
501	CCc1cc2ccc(C(C#N)(CC)CCOc3ccc(C#N)cc3)cc2[nH]c1=O (stereo not shown) [Compound 271]
